According to ChEMBL document CHEMBL1201862, “PubChem BioAssay data set” (2004):
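Cultured in 96-well plates, cells were exposed to test compound for 48 hours across five concentrations. Here, GI50 denotes the concentration required for 50% inhibition of growth.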 Activity calls are given as the source filed them. Cut-off read from the data, not from the text of the source: active = GI50 up to about 1.1 µM and inactive = higher.

How the values were obtained:
Assay in all cases: inhibition of tumour cell growth, NCI panel, 48 h
[1] = test system: HOP-92
[2] = test system: BT-549
[3] = test system: RPMI-8226
[4] = test system: ACHN
[5] = test system: M14
[6] = test system: SF-295
[7] = test system: KM12
[8] = test system: NCI-H460
[9] = test system: OVCAR-8
[10] = test system: MDA-MB-231
[11] = test system: SNB-19
[12] = test system: PC-3
[13] = test system: K562
[14] = test system: SF-539
[15] = test system: U-251
[16] = test system: MOLT-4
[17] = test system: MDA-MB-435
[18] = test system: OVCAR-4
[19] = test system: NCI-H522

Measured: GI50

COc1ccc(/C=C2\CCS(=O)(=O)c3ccccc3C2=O)cc1OC
inactive: [1] 19.6 µM | [2] 16.6 µM | [3] 35.2 µM | [4] 27.5 µM | [5] 38.9 µM | [6] 43.6 µM | [7] 28.4 µM | [8] 18.3 µM | [9] 19.1 µM | [10] 30.8 µM | [11] 42.8 µM | [12] 27.5 µM | [13] > 100 µM | [14] 25.6 µM | [15] 31.9 µM | [16] 46.2 µM | [17] 30.7 µM | [18] 17.9 µM

N#CC1Cc2cc3c(cc21)OCO3 (stereo unspecified)
inactive: [1] > 100 µM | [2] > 100 µM | [4] > 100 µM | [5] > 100 µM | [6] > 100 µM | [7] > 100 µM | [8] > 100 µM | [9] > 100 µM | [10] > 100 µM | [11] > 100 µM | [12] > 100 µM | [13] > 100 µM | [14] > 100 µM | [15] > 100 µM | [16] > 100 µM | [17] > 100 µM | [18] > 100 µM

N#C/C(C(=O)CCl)=C1\Nc2ccccc2O1
inactive: [1] 3.88 µM | [2] 2.17 µM | [3] 2.92 µM | [5] 3.9 µM | [6] 2.62 µM | [7] 3.89 µM | [8] 3.19 µM | [9] 2.89 µM | [10] 2.89 µM | [11] 7.98 µM | [12] 4.45 µM | [13] 3.24 µM | [14] 2.79 µM | [15] 5.36 µM | [16] 3.35 µM | [17] 3.24 µM | [18] 1.49 µM

CCOC(=O)/C(C#N)=N\Nc1ccc(-n2c(C)nc3ccccc3c2=O)cc1
inactive: [1] > 100 µM | [2] 73.6 µM | [3] 30.9 µM | [4] > 100 µM | [5] 69.8 µM | [6] 56.9 µM | [7] 30.2 µM | [8] 67.5 µM | [9] 29.6 µM | [10] > 100 µM | [11] > 100 µM | [12] 75.3 µM | [13] 49.1 µM | [14] > 100 µM | [15] > 100 µM | [16] 23.7 µM | [17] 47.6 µM

CCC(=O)N1NC(=O)C(CC)(CC)C1=O
inactive: [19] > 100 µM | [2] > 100 µM | [3] > 100 µM | [4] > 100 µM | [5] > 100 µM | [6] > 100 µM | [7] > 100 µM | [8] > 100 µM | [9] > 100 µM | [10] > 100 µM | [11] > 100 µM | [12] > 100 µM | [13] > 100 µM | [15] > 100 µM | [16] > 100 µM | [17] > 100 µM | [18] > 100 µM

[N-]=[N+]=C(C(=O)CN1CCCC1=O)S(=O)(=O)c1ccccc1
inactive: [19] > 100 µM | [2] > 100 µM | [3] > 100 µM | [4] > 100 µM | [5] > 100 µM | [6] > 100 µM | [7] > 100 µM | [8] > 100 µM | [9] > 100 µM | [10] > 100 µM | [11] > 100 µM | [12] > 100 µM | [13] > 100 µM | [14] > 100 µM | [15] > 100 µM | [16] > 100 µM | [17] > 100 µM

CCOC(=O)NC(Nc1ccc(F)cc1F)(C(F)(F)F)C(F)(F)F
inactive: [19] > 100 µM | [1] > 100 µM | [2] > 100 µM | [3] > 100 µM | [4] > 100 µM | [5] > 100 µM | [6] > 100 µM | [7] > 100 µM | [8] > 100 µM | [9] > 100 µM | [10] > 100 µM | [11] > 100 µM | [12] > 100 µM | [13] > 100 µM | [14] > 100 µM | [15] > 100 µM | [16] > 100 µM | [17] > 100 µM

OCCN(C1=NCCN1)/[N+](=C\c1ccccn1)[CH-]c1ccccn1
inactive: [19] > 100 µM | [2] > 100 µM | [3] 12.1 µM | [4] > 100 µM | [5] > 100 µM | [6] > 100 µM | [7] > 100 µM | [8] > 100 µM | [9] > 100 µM | [10] > 100 µM | [12] > 100 µM | [13] > 100 µM | [14] > 100 µM | [15] > 100 µM | [16] > 100 µM | [17] > 100 µM | [18] > 100 µM

COc1ccc(OCc2nc3cc(C(F)(F)F)ccc3nc2-c2ccccc2)cc1
inactive: [1] > 100 µM | [2] > 100 µM | [3] > 100 µM | [4] > 100 µM | [5] > 100 µM | [6] > 100 µM | [7] > 100 µM | [8] > 100 µM | [9] > 100 µM | [10] 27.4 µM | [11] > 100 µM | [12] > 100 µM | [13] > 100 µM | [14] > 100 µM | [15] > 100 µM | [16] > 100 µM | [17] > 100 µM | [18] > 100 µM

Cn1c2ccccc2c(=O)c2cccc(C(=O)NC(CCCNC(=N)N)C(=O)O)c21 (stereo unspecified)
inactive: [2] > 100 µM | [3] > 100 µM | [4] > 100 µM | [5] > 100 µM | [6] > 100 µM | [7] > 100 µM | [8] > 100 µM | [9] > 100 µM | [10] > 100 µM | [11] > 100 µM | [12] > 100 µM | [13] > 100 µM | [14] > 100 µM | [15] > 100 µM | [16] > 100 µM | [17] > 100 µM | [18] > 100 µM

O=C1/C(=C/c2ccc(O)c([N+](=O)[O-])c2)CCC/C1=C\c1ccc(O)c([N+](=O)[O-])c1
inactive: [19] 8.93 µM | [2] 13.3 µM | [3] 13.1 µM | [4] 7.96 µM | [5] 10.8 µM | [6] 18.4 µM | [7] 9.4 µM | [8] 17.8 µM | [9] 18.5 µM | [10] 21.9 µM | [11] 11.7 µM | [12] 13.3 µM | [13] 15.7 µM | [14] 19.3 µM | [15] 9.33 µM | [16] 13.9 µM | [17] 9.53 µM | [18] 18.9 µM
